The first test concerns the target T1, human insulin receptor (Ins-R) (Homo sapiens, UniProt P06213).
T1 construct: encoding the amino acid region 919-1343 of the intra-cytoplasmic kinase domain of the human insulin receptor; made in house; host or cells: baculovirus (Bac-to-Bac)
Kind of test: Ins-R tyrosine kinase assay, GST-Ins-R. In kind it is biochemical. The settings on record: Table 4; read-out: Ins-R, activity (IC50 for kinase inhibition). The text has this:
(§1) The inhibition of IGF-1R and Ins-R can be determined as follows: The baculovirus donor vector pfbgx3IGFIRcd is used to generate a recombinant baculovirus that expresses the amino acid region 950-1337 of the mature peptide cytoplasmic domain of the human IGF-IR. To generate the cDNA fragment encoding the amino acid region 919-1343 of the intra-cytoplasmic kinase domain of the human insulin receptor, pC5hInsR is used. The fragments of the human IGF-IR and Ins-R are cloned, expressed and small-scale purified as a factor Xa-cleavable glutathione-S-transferase (GST)-fusion protein using the Bac-to-Bac™ system (GIBCO BRL) of recombinant baculovirus generation. Virus containing media is collected from the transfected cell culture and used for infection to increase its titer. Virus containing media obtained after two rounds of infection is used for large-scale protein expression. Cell extracts are prepared and loaded onto a glutathione-Sepharose (Pharmacia) column. After washing, the GST-tagged proteins are then eluted with a glutathione-containing buffer. Purified protein is stored at −70° C. in elution buffer. Tyrosine protein kinase assays with purified GST-IGF-1R and GST-ins-R are carried in a final volume of 30 μl containing 20 mM Tris-HCl, pH 7.6, 10 mM MgCl2, 0.01 mM Na3VO4, 1% DMSO, 1 mM DTT, 3 μg/ml poly(Glu,Tyr) 4:1 and 10 μM ATP (γ-[^33P]-ATP 0.1 μCi). The assay is performed in 96-well plates at ambient temperature for 20 min and terminated by addition of 25 μl 0.05 M EDTA pH 7.0. An aliquot of 40 μl is spotted with a multichannel dispenser on Whatman P81 membranes mounted in a Millipore Microtiter filter manifold connected to a low vacuum source. After elimination of liquid, the membrane is transferred to a sequence of 4 washing baths containing 0.5% H3PO4 and one with EtOH (shaking incubation for 10 min each), dried, mounted onto a Hewlett Packard TopCount manifold added 10 μl Microscint® and counted. Compounds of formula (I) show up to 90% inhibition of Ins-R at 10,000 nM, preferably between 60-90% inhibition. The inhibition of Tek can be determined as follows: The procedure of the expression, purification and assay these kinases has been described. Fabbro et al., Pharmacol. Ther. 82(2-3) 293-301 (1999). In brief, the glutathione S-transferase (GST) gene from the pAcG1 vector (Pharmingen) is excised with EcoRV and EcoRI and inserted into the cloning site of the Fast-Bac baculoviral vector (GIBCO) creating a 5530 bp vector with N-terminal cloning sites derived from the pAcG1 fusion vector (FBG0). The C-terminal cloning site may be any cloning site (from the Fast-Bac vector) downstream of the N-terminal cloning site used. N-terminally GST-fused (pAcG1, Pharmingen) KDR, Flt-1, Flk-1, Tek and PDGFR-β kinase domains are obtained from ProQinase, Freiburg, Germany. Tek is recloned into the FBG1 vector by EcoRI excision and ligation into EcoRI digested FBG1 (FBG1-Tek). The coding sequences for the whole cytoplasmic domain of c-Kit (aa 544-976) and c-Fms (aa 538-972) are amplified by PCR from human uterus and from human bone marrow cDNA libraries (Clontech), respectively. The amplified DNA fragments are fused to GST by cloning them into FBG1 as BamHI-EcoRI insertions, to yield FBG1-c-Kit and FBG1-c-Fms. Tek is recloned into the FBG0 transfer vector by EcoRI excision and ligation into EcoRI digested FBG0 (FBG-Tie2/Tek). FGFR-1 and c-met kinase domains are obtained by PCR from human A431 cells. N-terminal primers contain an overhanging EcoRI site, while C-terminal primers contain a XhoI site to aid cloning into the transfer vectors. After digestion of both the PCR fragments and FBG0 the cleavage products are gel-purified and ligated together to form the kinase constructs (FBG-Met, FBG-FGFR-1).
T2 sequence (P08069 980-1367): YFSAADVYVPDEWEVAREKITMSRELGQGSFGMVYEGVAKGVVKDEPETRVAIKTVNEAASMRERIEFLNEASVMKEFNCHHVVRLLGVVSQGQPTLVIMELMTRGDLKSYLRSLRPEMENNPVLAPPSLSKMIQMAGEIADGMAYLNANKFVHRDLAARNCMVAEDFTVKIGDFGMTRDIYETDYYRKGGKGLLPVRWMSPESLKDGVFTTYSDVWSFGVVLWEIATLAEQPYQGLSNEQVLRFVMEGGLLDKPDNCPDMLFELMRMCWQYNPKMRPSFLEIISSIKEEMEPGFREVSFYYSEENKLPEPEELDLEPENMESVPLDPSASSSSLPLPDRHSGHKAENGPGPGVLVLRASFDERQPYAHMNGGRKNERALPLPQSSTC
T1 sequence (P06213 958-1382 limits assumed): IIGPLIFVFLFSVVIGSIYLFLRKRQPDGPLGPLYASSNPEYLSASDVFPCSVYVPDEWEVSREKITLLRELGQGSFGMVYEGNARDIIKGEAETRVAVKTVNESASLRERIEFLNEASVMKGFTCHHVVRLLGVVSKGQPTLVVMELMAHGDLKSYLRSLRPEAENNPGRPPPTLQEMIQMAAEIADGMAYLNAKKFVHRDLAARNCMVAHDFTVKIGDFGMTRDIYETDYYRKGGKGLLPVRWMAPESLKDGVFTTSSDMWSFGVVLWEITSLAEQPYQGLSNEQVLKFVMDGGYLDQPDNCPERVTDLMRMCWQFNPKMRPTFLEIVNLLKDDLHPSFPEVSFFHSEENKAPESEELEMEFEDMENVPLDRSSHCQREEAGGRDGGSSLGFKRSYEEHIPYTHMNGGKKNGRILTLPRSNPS
One may read the IC50 as the concentration that inhibits the measured activity by half. With `CN1CCN(c2ccc(-c3cnn4c(N)c(-c5cccc(O)c5)cnc34)cc2)CC1` [Example 1, 3-{7-Amino-3-[4-(4-methyl-piperazin-1-yl)-phenyl]-pyrazolo[1,5-a]pyrimidin-6-yl}-phenol], the IC50 is < 10 µM.

The next test has as its target T2, human IGF-IR (Homo sapiens, UniProt P08069).
T2 construct: expresses the amino acid region 950-1337 of the mature peptide cytoplasmic domain of the human IGF-IR; made in house; host or cells: baculovirus (Bac-to-Bac)
Put plainly: IGF-1R tyrosine kinase assay, GST-IGF-1R. The class given is biochemical. The following applies: Table 5; read-out: IGF-1R, IC50 class.
From the text: as §1
On to `Cc1nc2c(-c3ccc(N4CCN(C)CC4)cc3)cnn2c(N)c1-c1ccc(F)cc1` [Example 79, 6-(4-Fluoro-phenyl)-5-methyl-3-[4-(4-methyl-piperazin-1-yl)-phenyl]-pyrazolo[1,5-a]pyrimidin-7-ylamine], for which the IC50 is > 10 µM.
Same read-out and setting: to `Cc1nc2c(-c3cccc(N4CCN(C5CCN(C)CC5)CC4)c3)cnn2c(N)c1-c1cccc(Cl)c1` [Example 81, 6-(3-Chloro-phenyl)-5-methyl-3-{3-[4-(1-methyl-piperidin-4-yl)-piperazin-1-yl]-phenyl}-pyrazolo[1,5-a]pyrimidin-7-ylamine] belongs < 1 µM.
Regarding `Cc1nc2c(-c3cccc(N4CCN(C)CC4)c3)cnn2c(N)c1-c1ccc(F)c(Cl)c1` [Example 82, 6-(3-Chloro-4-fluoro-phenyl)-5-methyl-3-[3-(4-methyl-piperazin-1-yl)-phenyl]pyrazolo[1,5-a]pyrimidin-7-ylamine], the IC50 was > 10 µM.
Turning to `Cc1nc2c(-c3cccc(N4CCN(C)CC4)c3)cnn2c(N)c1-c1cccc(Br)c1` [Example 84, 6-(3-Bromo-phenyl)-5-methyl-3-[3-(4-methyl-piperazin-1-yl)-phenyl]-pyrazolo[1,5-a]pyrimidin-7-ylamine], the IC50 was > 10 µM.
The same measure, in the same setting: to `CN1CCN(c2cccc(-c3cnn4c(N)c(Cc5cccc(Br)c5)cnc34)c2)CC1` [Example 85, 6-(3-Bromo-benzyl)-3-[3-(4-methyl-piperazin-1-yl)-phenyl]pyrazolo[1,5-a]pyrimidin-7-ylamine] belongs > 10 µM.
For `CN1CCN(c2cccc(-c3cnn4c(N)c(-c5cccc(Br)c5)cnc34)c2)CC1` [Example 86, 6-(3-Bromo-phenyl)-3-[3-(4-methyl-piperazin-1-yl)-phenyl]-pyrazolo[1,5-a]pyrimidin-7-ylamine], the IC50 was > 10 µM.
On to `Cc1nc2c(-c3cccc(N4CCOCC4)c3)cnn2c(N)c1-c1cccc(Cl)c1` [Example 87, 6-(3-Chloro-phenyl)-5-methyl-3-(3-morpholin-4-yl-phenyl)-pyrazolo[1,5-a]pyrimidin-7-ylamine], for which the IC50 is > 10 µM.
On to `Cc1nc2c(-c3cccc(N4C[C@@H](C)O[C@@H](C)C4)c3)cnn2c(N)c1-c1cccc(Cl)c1` [Example 89, 6-(3-Chloro-phenyl)-3-[3-((2R,6S)-2,6-dimethyl-morpholin-4-yl)-phenyl]-5-methyl-pyrazolo[1,5-a]pyrimidin-7-ylamine], for which the IC50 was > 10 µM.
Regarding `CN1CCN(c2cccc(-c3cnn4c(N)c(Cc5ccccc5)cnc34)c2)CC1` [Example 91, 6-Benzyl-3-[3-(4-methyl-piperazin-1-yl)-phenyl]-pyrazolo[1,5-a]pyrimidin-7-ylamine], the IC50 is > 10 µM.
On to `COc1ccc(-c2cnn3c(N)c(-c4cccc(Cl)c4)c(CF)nc23)cc1OC` [Example 92, 6-(3-Chloro-phenyl)-3-(3,4-dimethoxy-phenyl)-5-fluoromethyl-pyrazolo[1,5-a]pyrimidin-7-ylamine], for which the IC50 is > 10 µM.
In the case of `COc1ccc(-c2cnn3c(N)c(-c4cccc(Cl)c4)c(C)nc23)cc1OC` [Example 93, 6-(3-Chloro-phenyl)-3-(3,4-dimethoxy-phenyl)-5-methyl-pyrazolo[1,5-a]pyrimidin-7-ylamine], the IC50 was > 10 µM.
Regarding `COc1ccc(-c2cnn3c(N)c(-c4ccc(F)c(Cl)c4)c(C)nc23)cc1OC` [Example 94, 6-(3-Chloro-4-fluoro-phenyl)-3-(3,4-dimethoxy-phenyl)-5-methyl-pyrazolo[1,5-a]pyrimidin-7-ylamine], the IC50 was > 10 µM.
`COc1ccc(-c2cnn3c(N)c(-c4ccc(F)c(Cl)c4)c(C)nc23)cc1` [Example 95, 6-(3-Chloro-4-fluoro-phenyl)-3-(4-methoxy-phenyl)-5-methyl-pyrazolo[1,5-a]pyrimidin-7-ylamine]: the IC50 was > 10 µM.
In the case of `COc1ccc(-c2cnn3c(N)c(-c4ccc(F)cc4)c(C)nc23)cc1` [Example 96, 6-(4-Fluoro-phenyl)-3-(4-methoxy-phenyl)-5-methyl-pyrazolo[1,5-a]pyrimidin-7-ylamine], the IC50 is > 10 µM.
On to `Cc1nc2c(-c3cccc(N4CCN(CCO)CC4)c3)cnn2c(N)c1-c1ccc(F)cc1` [Example 97, 2-(4-{3-[7-Amino-6-(4-fluoro-phenyl)-5-methyl-pyrazolo[1,5-a]pyrimidin-3-yl]-phenyl}-piperazin-1-yl)-ethanol], for which the IC50 was > 10 µM.
Still for that read-out and setting: to `Cc1nc2c(-c3cccc(N4CCN(C)CC4)c3)cnn2c(N)c1-c1ccc(F)c(F)c1` [Example 98, 6-(3,4-Difluoro-phenyl)-5-methyl-3-[3-(4-methyl-piperazin-1-yl)-phenyl]-pyrazolo[1,5-a]pyrimidin-7-ylamine] belongs > 10 µM.
Consider `COc1ccc(-c2cnn3c(N)c(-c4ccc(F)c(F)c4)c(C)nc23)cc1OC` [Example 99, 6-(3,4-Difluoro-phenyl)-3-(3,4-dimethoxy-phenyl)-5-methyl-pyrazolo[1,5-a]pyrimidin-7-ylamine], for which the IC50 is > 10 µM.
Turning to `Cc1nc2c(-c3cccc(N4CCN(CCO)CC4)c3)cnn2c(N)c1-c1ccc(F)c(Cl)c1` [Example 100, 2-(4-{3-[7-Amino-6-(3-chloro-4-fluoro-phenyl)-5-methyl-pyrazolo[1,5-a]pyrimidin-3-yl]-phenyl}-piperazin-1-yl)-ethanol], the IC50 is > 10 µM.
Consider `Cc1nc2c(-c3cccc(N4CCN(CCO)CC4)c3)cnn2c(N)c1-c1ccc(F)c(F)c1` [Example 101, 2-(4-{3-[7-Amino-6-(3,4-difluoro-phenyl)-5-methyl-pyrazolo[1,5-a]pyrimidin-3-yl]-phenyl}-piperazin-1-yl)-ethanol], for which the IC50 is > 10 µM.
For `Cc1nc2c(-c3cccc(N4CCC(N5CCCC5)CC4)c3)cnn2c(N)c1-c1cccc(Cl)c1` [Example 102, 6-(3-Chloro-phenyl)-5-methyl-3-[3-(4-pyrrolidin-1-yl-piperidin-1-yl)-phenyl]-pyrazolo[1,5-a]pyrimidin-7-ylamine], the IC50 is > 10 µM.
Consider `Cc1nc2c(-c3cccc(N4CCC(N5CCCC5)CC4)c3)cnn2c(N)c1-c1ccc(F)cc1` [Example 103, 6-(4-Fluoro-phenyl)-5-methyl-3-[3-(4-pyrrolidin-1-yl-piperidin-1-yl)-phenyl]-pyrazolo[1,5-a]pyrimidin-7-ylamine], for which the IC50 was > 10 µM.
On the same count and under the same terms, with `Cc1nc2c(-c3cccc(N4CC[N+](C)([O-])CC4)c3)cnn2c(N)c1-c1ccc(F)cc1` [Example 106, 6-(4-Fluoro-phenyl)-5-methyl-3-[3-(4-methyl-4-oxy-piperazin-1-yl)-phenyl]-pyrazolo[1,5-a]pyrimidin-7-ylamine] the figure was > 10 µM; with `Cc1nc2c(-c3cccc([N+]4([O-])CC[N+](C)([O-])CC4)c3)cnn2c(N)c1-c1ccc(F)cc1` (stereo not drawn) [Example 107, 6-(4-Fluoro-phenyl)-5-methyl-3-[3-(4-methyl-1,4-dioxy-piperazin-1-yl)-phenyl]-pyrazolo[1,5-a]pyrimidin-7-ylamine], > 10 µM.

Source of the values: patent US20090099167A1, “Organic compounds” (Novartis Institutes for Biomedical Research, priority 2004, published 2009).
